Calls of active or inactive are those of the source. The calls are words filed in the database; no cut-off is given here.
Columns and labels:
Mus musculus [1] = experiment: Anticonvulsant activity in albino Mus musculus (mouse) assessed as protection against maximal electroshock-induced seizures at 30 mg/kg, ip after 0.5 hr relative to control; format: functional, organism-based; design: dose 30 mg/kg
[2] = Partition coefficient, log P of the compound; format: physicochemical; conditions: octanol/water
Mus musculus [3] = experiment: Neurotoxicity in albino Mus musculus (mouse) assessed as motor impairment at 300 mg/kg, ip after 0.5 hr relative to control; format: toxicity, organism-based; design: dose 300 mg/kg, route intraperitoneal; conditions: in vivo
Mus musculus [4] = experiment: Neurotoxicity in albino Mus musculus (mouse) assessed as motor impairment at 100 mg/kg, ip after 0.5 hr relative to control; format: toxicity, organism-based; design: dose 100 mg/kg, route intraperitoneal; conditions: in vivo
Mus musculus [5] = experiment: Neurotoxicity in albino Mus musculus (mouse) assessed as motor impairment at 30 mg/kg, ip after 0.5 hr relative to control; format: toxicity, organism-based; design: dose 30 mg/kg, route intraperitoneal; conditions: in vivo
Mus musculus [6] = experiment: Anticonvulsant activity in albino Mus musculus (mouse) assessed as protection against subcutaneous pentylenetetrazol-induced seizures at 300 mg/kg, ip after 4 hr relative to control; format: functional, organism-based; design: dose 300 mg/kg
Mus musculus [7] = experiment: Anticonvulsant activity in albino Mus musculus (mouse) assessed as protection against subcutaneous pentylenetetrazol-induced seizures at 100 mg/kg, ip after 4 hr relative to control; format: functional, organism-based; design: dose 100 mg/kg
Mus musculus [8] = experiment: Anticonvulsant activity in albino Mus musculus (mouse) assessed as protection against subcutaneous pentylenetetrazol-induced seizures at 30 mg/kg, ip after 4 hr relative to control; format: functional, organism-based; design: dose 30 mg/kg
Mus musculus [9] = experiment: Anticonvulsant activity in albino Mus musculus (mouse) assessed as protection against subcutaneous pentylenetetrazol-induced seizures at 300 mg/kg, ip after 0.5 hr relative to control; format: functional, organism-based; design: dose 300 mg/kg
Mus musculus [10] = experiment: Anticonvulsant activity in albino Mus musculus (mouse) assessed as protection against subcutaneous pentylenetetrazol-induced seizures at 100 mg/kg, ip after 0.5 hr relative to control; format: functional, organism-based; design: dose 100 mg/kg
Mus musculus [11] = experiment: Anticonvulsant activity in albino Mus musculus (mouse) assessed as protection against subcutaneous pentylenetetrazol-induced seizures at 30 mg/kg, ip after 0.5 hr relative to control; format: functional, organism-based; design: dose 30 mg/kg
Mus musculus [12] = experiment: Anticonvulsant activity in albino Mus musculus (mouse) assessed as protection against maximal electroshock-induced seizures at 300 mg/kg, ip after 4 hr relative to control; format: functional, organism-based; design: dose 300 mg/kg
Mus musculus [13] = experiment: Anticonvulsant activity in albino Mus musculus (mouse) assessed as protection against maximal electroshock-induced seizures at 100 mg/kg, ip after 4 hr relative to control; format: functional, organism-based; design: dose 100 mg/kg
Mus musculus [14] = experiment: Anticonvulsant activity in albino Mus musculus (mouse) assessed as protection against maximal electroshock-induced seizures at 30 mg/kg, ip after 4 hr relative to control; format: functional, organism-based; design: dose 30 mg/kg
Mus musculus [15] = experiment: Anticonvulsant activity in albino Mus musculus (mouse) assessed as protection against maximal electroshock-induced seizures at 300 mg/kg, ip after 0.5 hr relative to control; format: functional, organism-based; design: dose 300 mg/kg
Mus musculus [16] = experiment: Anticonvulsant activity in albino Mus musculus (mouse) assessed as protection against maximal electroshock-induced seizures at 100 mg/kg, ip after 0.5 hr relative to control; format: functional, organism-based; design: dose 100 mg/kg
Mus musculus [17] = experiment: Neurotoxicity in albino Mus musculus (mouse) assessed as motor impairment at 300 mg/kg, ip after 4 hr relative to control; format: toxicity, organism-based; design: dose 300 mg/kg, route intraperitoneal; conditions: in vivo
Mus musculus [18] = experiment: Neurotoxicity in albino Mus musculus (mouse) assessed as motor impairment at 100 mg/kg, ip after 4 hr relative to control; format: toxicity, organism-based; design: dose 100 mg/kg, route intraperitoneal; conditions: in vivo
Mus musculus [19] = experiment: Neurotoxicity in albino Mus musculus (mouse) assessed as motor impairment at 30 mg/kg, ip after 4 hr relative to control; format: toxicity, organism-based; design: dose 30 mg/kg, route intraperitoneal; conditions: in vivo
Mus musculus [20] = experiment: Anticonvulsant activity in albino Mus musculus (mouse) assessed as protection against subcutaneous pentylenetetrazol-induced seizures at 30 mg/kg, sc after 4 hr relative to control; format: functional, organism-based; design: dose 30 mg/kg
Mus musculus [21] = experiment: Anticonvulsant activity in albino Mus musculus (mouse) assessed as protection against subcutaneous pentylenetetrazol-induced seizures at 30 mg/kg, sc after 0.5 hr relative to control; format: functional, organism-based; design: dose 30 mg/kg
Mus musculus [22] = experiment: Anticonvulsant activity in albino Mus musculus (mouse) assessed as protection against maximal electroshock-induced seizures at 30 mg/kg, sc after 4 hr relative to control; format: functional, organism-based; design: dose 30 mg/kg
Mus musculus [23] = experiment: Anticonvulsant activity in albino Mus musculus (mouse) assessed as protection against maximal electroshock-induced seizures at 30 mg/kg, sc after 0.5 hr relative to control; format: functional, organism-based; design: dose 30 mg/kg
Mus musculus [24] = experiment: Neurotoxicity in albino Mus musculus (mouse) assessed as motor impairment at 30 mg/kg, sc after 4 hr relative to control; format: toxicity, organism-based; design: dose 30 mg/kg, route subcutaneous; conditions: in vivo
Mus musculus [25] = experiment: Neurotoxicity in albino Mus musculus (mouse) assessed as motor impairment at 30 mg/kg, sc after 0.5 hr relative to control; format: toxicity, organism-based; design: dose 30 mg/kg, route subcutaneous; conditions: in vivo

| SMILES | Activity (Mus musculus [1]) | logP [2] | Activity (Mus musculus [3]) | Activity (Mus musculus [4]) | Activity (Mus musculus [5]) | Activity (Mus musculus [6]) | Activity (Mus musculus [7]) | Activity (Mus musculus [8]) | Activity (Mus musculus [9]) | Activity (Mus musculus [10]) | Activity (Mus musculus [11]) | Activity (Mus musculus [12]) | Activity (Mus musculus [13]) | Activity (Mus musculus [14]) | Activity (Mus musculus [15]) | Activity (Mus musculus [16]) | Activity (Mus musculus [17]) | Activity (Mus musculus [18]) | Activity (Mus musculus [19]) | further results |
| --- | --- | --- | --- | --- | --- | --- | --- | --- | --- | --- | --- | --- | --- | --- | --- | --- | --- | --- | --- | --- |
| CCNC(=S)N1N=C(c2ccccn2)CC1c1ccc(Cl)cc1 (centres undefined) | inactive | 3.64 | Non-toxic | Non-toxic | Non-toxic | inactive | inactive | inactive | Active | inactive | inactive | inactive | inactive | inactive | Active | Active | Non-toxic | Non-toxic | Non-toxic |  |
| NC(=S)N1N=C(c2ccccn2)CC1c1cccc2ccccc12 (centres undefined) | Active | 4.51 | Non-toxic | Non-toxic | Non-toxic | Active | inactive | inactive | Active | Active | inactive | Active | Active | inactive | Active | Active | Non-toxic | Non-toxic | Non-toxic |  |
| NC(=S)N1N=C(c2ccccn2)CC1c1ccc(OCc2ccccc2)cc1 (centres undefined) | inactive | 1.17 | Toxic | Toxic |  | inactive | inactive | inactive | inactive | inactive | inactive | inactive | inactive | inactive | inactive | inactive |  |  | Non-toxic |  |
| CCNC(=S)N1N=C(c2ccccn2)CC1c1ccc(OCc2ccccc2)cc1 (centres undefined) | inactive | 1.46 |  | Non-toxic | Non-toxic | inactive | inactive | inactive | Active | inactive | inactive | inactive | inactive | inactive | Active | Active | Non-toxic | Non-toxic | Non-toxic |  |
| NC(=S)N1N=C(c2ccccn2)CC1c1cccc(Cl)c1 (centres undefined) | Active | 4.15 |  | Non-toxic | Non-toxic | Active | inactive | inactive | Active | inactive | inactive | Active | inactive | inactive | Active | Active | Non-toxic | Non-toxic | Non-toxic |  |
| COc1ccc(C2CC(c3ccccn3)=NN2C(N)=S)cc1 (centres undefined) | inactive | 2.82 | Non-toxic | Non-toxic | Non-toxic | inactive | inactive | inactive | Active | Active | inactive | inactive | inactive | inactive | inactive | inactive | Non-toxic | Non-toxic | Non-toxic |  |
| CCNC(=S)N1N=C(c2ccccn2)CC1c1ccc(OC)cc1 (centres undefined) | inactive | 2.92 | Non-toxic | Non-toxic | Non-toxic | Active | inactive | inactive | Active | Active | Active | inactive | inactive | inactive | inactive | inactive | Non-toxic | Non-toxic | Non-toxic |  |
| CCNC(=S)N1N=C(c2ccccn2)CC1c1cccc(Cl)c1 (centres undefined) | inactive | 3.2 |  | Non-toxic | Non-toxic | inactive | inactive | inactive | Active | inactive | inactive | inactive | inactive | inactive | Active | Active | Non-toxic | Non-toxic | Non-toxic |  |
| CCC1(c2ccccc2)C(=O)NC(=O)NC1=O [PHENOBARBITAL] |  |  |  |  |  |  |  |  |  |  |  |  |  |  |  |  |  |  |  | Activity (Mus musculus [20]): Active; Activity (Mus musculus [21]): Active; Activity (Mus musculus [22]): Active; Activity (Mus musculus [23]): Active; Activity (Mus musculus [24]): Non-toxic; Activity (Mus musculus [25]): Non-toxic |
| CCNC(=S)N1N=C(c2ccccn2)CC1c1cccc2ccccc12 (centres undefined) | inactive | 4.7 | Non-toxic | Non-toxic | Non-toxic | Active | inactive | inactive | Active | Active | inactive | Active | inactive | inactive | Active | Active | Non-toxic | Non-toxic | Non-toxic |  |
| NC(=S)N1N=C(c2ccccn2)CC1c1ccc(Cl)cc1 (centres undefined) | inactive | 4.21 |  | Non-toxic | Non-toxic | inactive | inactive | inactive | Active | inactive | inactive | Active | inactive | inactive | Active | Active | Non-toxic | Non-toxic | Non-toxic |  |

From ChEMBL document CHEMBL3045568, “Novel 2-pyrazoline derivatives as potential anticonvulsant agents” (Med Chem Res, 2013)
